“Also recorded” adds a separate entry of the source.
Tests used:
human tau (hTau) [1] = test: Western blotting of tau in primary neurons with hTau overexpression in the presence of MG132; format: cell-based
Protocol: (§1) Primary hippocampal neurons were prepared from E12–E15 days SD rat embryos. Briefly, pregnant rats were acutely executed, hippocampus was dissected on ice and gently minced in DME/F12 (Hyclone) then suspended in 0.125% (vol/vol) trypsin solution at 37 °C for 20 min. Enzymatic activity was stopped by fetal bovine serum. Neurons were initially kept in 10% FBS-containing DME/F12 for 4–6 h, and subsequently cultured in Neurobasal (Hyclone) with 2% B27, 1% glutamax and 1% penicillin–streptomycin (Thermo Fisher Scientific) in dishes pre-coated with 100 μg/mL poly-D-lysine. Serum was gradually removed by replacing half of the medium for each time within the following 2 days. Especially, to inhibit the proteasome-dependent proteolysis, the cultured hippocampal neurons were treated with 5 μM MG132 for 5 h before harvest.
(§2) Cultured cells or hippocampus tissues were collected on ice, and homogenized with RIPA lysis buffer containing 50 mM Tris-HCl, 100 mM NaCl, 1% Triton X-100, 5 mM EDTA, and 1:100 PMSF, and then centrifuged at 12,000 × g for 20 min. The supernatant was collected for the analysis of soluble proteins. In some experiments, the pellets were further incubated with 8% SDS buffer at 37 °C and then ultrasound for 60 times to reach a complete resuspension for the analysis of insoluble tau. Protein concentration was measured through BCA assays (Thermo Fisher). Equal amount of protein from each sample were separated in SDS-PAGE gels, and then transferred onto nitrocellulose or 0.22 μm polyvinylidene fluoride membranes (Merck Millipore). The membranes were blocked with 5% BSA, and incubated in turn with primary and horseradish peroxidase-conjugated secondary antibodies: pS199-Tau (44734G, Invitrogen, 1:2000), pT205-Tau (11108-1, Signalway, 1:2000), pS396-Tau (11102, Signalway, 1:2000), pS404-Tau (11112, Signalway, 1:2000), AT8 (MN1020, Thermo Fisher, 1:1000), Tau5 (ab80579, Abcam, 1:1000), Tau46 (T9450, Sigma, 1:1000), PP2A-Bα (4953, Cell signaling, 1:1000), Phospho-Ser/Thr (ab17464, Abcam1:1000), Ubiquitin (ab7254, Abcam, 1:1000), MAP2 (AB5622, Millipore, 1:2000), hTau-N368 (a generous gift from Prof. Keqiang Ye, Emory University School of Medicine, 1:1000), DEPTAC (developed by Daian Biotechnology, Wuhan, China, 1:500), β-actin (ab6276, Abcam, 1:2000). HRP-conjugated goat anti-rabbit IgG (A0208, Beyotime, 1:3000), HRP-conjugated goat anti-mouse IgG (A0216, Beyotime, 1:3000). Blots were visualized using ECL luminol reagent (P0018FS, Beyotime), and quantified using ImageJ software.

[2] = test system: primary rat hippocampal neurons; test: Cell penetrability assessment in cultured primary hippocampal neurons; format: in vitro ADME; conditions: FITC-labeled DEPTAC 100 μM, 24 h, fixed; laser-scanning microscopy (fluorescence)
Protocol: as §1
FITC-labeled DEPTAC (100 μM) was dissolved in sterilized water, and administrated into the medium of cultured primary rat hippocampal neurons for 24 h. Neurons were fixed with 4% paraformaldehyde, co-stained with DAPI (Beyotime), and then washed with PBS for 3 × 5 min. FITC was observed under a laser-scanning microscopy (Zeiss).

tau = test: Tau Ser/Thr phosphorylation and ubiquitination in the presence of MG132; format: cell-based, rat
Protocol: as §1, with “Especially, to inhibit the proteasome-dependent proteolysis, the cultured hippocampal neurons were treated with 5 μM MG132 for 5 h before harvest.” left out
Cultured cells or hippocampus tissues were collected on ice, and homogenized with RIPA lysis buffer containing 50 mM Tris-HCl, 100 mM NaCl, 1% Triton X-100, 5 mM EDTA, and 1:100 PMSF, and then centrifuged at 12,000 × g for 20 min. […] Protein concentration was measured through BCA assays (Thermo Fisher). […] Blots were visualized using ECL luminol reagent (P0018FS, Beyotime), and quantified using ImageJ software.
For co-immunoprecipitation, cultured cells were lysed on ice with RIPA buffer for 10 min containing 1:100 PMSF. […] Immunoprecipitants were subsequently analyzed through Western blotting.

human tau (hTau) [3] = test: Western blotting of phospho-tau and total tau in primary neurons with hTau overexpression; format: cell-based
Protocol: Lentivirus LV-EF1α-hTau-GFP (3.50E+8 vg/mL) was packaged by OBiO (Shanghai, China) and used for hTau-overexpression (fused with GFP) in cultured primary rat neurons. AAV-CaMKIIα-Cre (diluted to 5.21E + 07 vg/mL) and AAV-EF1α-DIO-mCherry (3.24E + 12 vg/mL) were obtained from BrainVTA (Wuhan, China) and co-injected (1:1 vol/vol) for sparse labeling of dorsal DG neurons. Doxycycline was purchased from Energy Chemical (Shanghai, China). Rabbit polyclonal DEPTAC antibody was prepared by Daian Biotechnology (Wuhan, China). All other reagents including MG132 were purchased from Sigma-Aldrich (USA), unless otherwise specified.
as §1, §2

[4] = test system: microtubules in neurites of hippocampal neurons of Tau368 mice; test: Electron microscopy of microtubule bundles; format: in vivo, mouse; conditions: dox 2 months
Protocol: For 2-month male C57BL/6 mice, 10 mM FITC-labeled or unlabeled-DEPTAC were directly injected through the tail vein or lateral ventricle for the evaluation of BBB-penetrability. For 9-month 3×Tg AD mice or Tau368 (20–30 g body weight), unlabeled-DEPTAC (5 mM, 1 μL for each time) was delivered for once into the lateral ventricle through direct stereotaxic injection, or repeatedly administrated through guiding cannulas (RWD, Shenzhen, China) implanted into the lateral ventricle once every 3 days for a consecutive month to test its dephosphorylation efficiency. Mice were restricted in a custom designed device and stayed awake during drug administration, and sacrificed at 24 h post the single or last DEPTAC administration.
Mice were killed by overdose 1% pentobarbital sodium. Hippocampal tissues were isolated on ice, fixed in 2.5% glutaraldehyde at 4 °C for 24 h, washed in 0.1 M phosphate buffer, and post-fixed in 1% osmium acid for 2 h. After washed with phosphate buffer, tissues were dehydrated in increasing gradient of ethanol (30–100%), and incubated in turn with acetone/epoxy (2:1), acetone/epoxy (1:1) and epoxy for 12 h each at 37 °C. Tissues were subsequently embedded in epoxy at 37 °C for 48 h. Sections of 100 nm were sliced using a ultramicrotome (EM UC7, Leica), and stained in a buffer containing 2% uranium acetate and lead citrate at room temperature for 15 min. Images were taken by a transmission electron microscope (Tecnai G^2 20 TWIN, FEI). Bundles density and length were analyzed using ImageJ.

[5] = 5 μM MG132 for 5 h before harvest, *p < 0.05, n = 3 cell wells
[6] = primary rat hippocampal neurons, hTau overexpression
[7] = primary rat neurons, lentivirus-mediated hTau overexpression, dose- and time-dependent, *p < 0.01, n = 3
[8] = then 1-month DEPTAC, *p < 0.05, n = 5 mice, 12–23 view fields

“(1) YQQYQDATADEQG, originates from the porcine β-tubulin 422–434 for recognizing and binding tau proteins.[5],[6] (2) GSGS, a linker for increasing the flexibility of the peptide.[15] (3) KKVAVVRTPPKSP, for recruiting PP2A-Bα,[16] and (4) RRRRRRRR [DEPTAC, DEPhosphorylation TArgeting Chimera; 38 amino acid residues, C185H314N72O56]” was tested. Which “efficiency of tau dephosphorylation in the presence of MG132” value (human tau (hTau) [1]; 5 μM MG132, compared with absence of MG132, n = 3 cell wells) did it give?
The value was “reduced efficiency; also recorded: less efficiency”.

What about the “reduction of total tau (Tau5 and Tau46) in the presence of MG132” value (human tau (hTau) [1]; 5 μM MG132 for 5 h before harvest) of the same substance?
The value was “abolished”.

What about the “tau dephosphorylation at AT8 epitope in the presence of MG132” value (human tau (hTau) [1]; [5]) of the same substance?
The value was “still significant”.

What about the “tau dephosphorylation at pT205 in the presence of MG132” value (human tau (hTau) [1]; [5]) of the same substance?
Its value is “still significant”.

And the “neuron penetrability in vitro” value [2]?
Its value is “high neuron penetrability; also recorded: High cell penetrability”.

What about the “tau phosphorylation at Ser/Thr residues” value (tau) of the same substance?
Its value is “downregulation; also recorded: decreased”.

What about the tau ubiquitination (tau) of the same substance?
Its tau ubiquitination is “upregulation; also recorded: upregulated”.

What about the “effective concentration of DEPTAC” value (human tau (hTau) [3]; discussion, only effective above) of the same substance?
Its value is > 200 µM.

What about the “effective time window post-administration” value (human tau (hTau) [3]; discussion, only effective within) of the same substance?
The value was ≤ 3 days.

What about the “concentration of most significant reduction of phospho-tau” value (human tau (hTau) [3]; [6]) of the same substance?
The value was 200 to 300 µM.

What about the “time post administration of most significant reduction of phospho-tau” value (human tau (hTau) [3]; [6]) of the same substance?
The value was ≤ 3 days.

What about the “tau phosphorylation at AT8 (Ser199/Ser202/Thr205) epitope” value (human tau (hTau) [3]; [7]) of the same substance?
The value was “downregulated; also recorded: promoted tau dephosphorylation”.

And the “tau phosphorylation at pS199” value (human tau (hTau) [3]; [7])?
Its value is “downregulated; also recorded: promoted tau dephosphorylation”.

What about the “tau phosphorylation at pS396” value (human tau (hTau) [3]; [7]) of the same substance?
Its value is “downregulated; also recorded: promoted tau dephosphorylation”.

What about the “tau phosphorylation at pS404” value (human tau (hTau) [3]; [7]) of the same substance?
Its value is “downregulated; also recorded: promoted tau dephosphorylation”.

And the “tau phosphorylation at pT205” value (human tau (hTau) [3]; [7])?
The value was “downregulated; also recorded: promoted tau dephosphorylation”.

And the “total tau probed by Tau5 antibody” value (human tau (hTau) [3]; [7])?
The value was “reduction of total tau; also recorded: reduced total tau”.

What about the “density of microtubule bundles” value [4, 8] of the same substance?
Its value is “significantly reversed”.

And the “length of microtubule bundles” value [4, 8]?
Its value is “significantly reversed”.

What about the “microtubule disassembly in morphology” value ([4]; then DEPTAC for a consecutive month) of the same substance?
The value was “efficiently reversed”.

— PMC8280143, “A novel dephosphorylation targeting chimera selectively promoting tau removal in tauopathies” (Signal Transduction and Targeted Therapy, 2021)
